Test results from ChEMBL document CHEMBL1201862, “PubChem BioAssay data set” (2004).
Calls of active or inactive are those of the source.

Legend:
[1] = Cytotoxicity screening for potential Inhibitors of Bacterial Capsule Biogenesis. [Related pubchem assays (depositor defined):AID488970]; assay type: functional
HeLa = experiment: HeLa cell cytotoxicity, dose response, cytotoxicity control, 24 h, cherry-picked samples (AID 504726); assay type: functional, cell-based; conditions: Homo sapiens;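 further: potency for cytotoxicity as loss of luminescence signal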
[2] = target: T1, Endoribonuclease toxin MazF (Escherichia coli K-12, UniProt P0AE70); experiment: fluorescent RNA oligo signal without MazF, dose response, counter-screen for MazEF activator project, biochemical, fluorescence, single-stranded RNase substrate (AID 588502); assay type: functional
T1 sequence (P0AE70 whole entry): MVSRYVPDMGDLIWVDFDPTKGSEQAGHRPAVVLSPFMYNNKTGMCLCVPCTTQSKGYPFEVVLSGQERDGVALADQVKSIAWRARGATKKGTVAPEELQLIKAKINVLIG

[3] = target: T1, Endoribonuclease toxin MazF; experiment: MazF toxin RNase activators, dose response, biochemical, fluorescence, single-stranded RNA substrate, uHTS hits (AID 588481); assay type: functional
ORF 73 = ORF 73 (Human herpesvirus 8, UniProt O40947); experiment: inhibitors of C-LANA binding to LBS DNA, dose response, biochemical, fluorescence polarization, cherry-picked samples (AID 504725); parameters: species or system Human gammaherpesvirus 8;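 further: fluorescence polarization of a labeled DNA duplex reporting LANA DNA binding; potency is for inhibitors that block LANA binding to the DNA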
[4] = target: T2, Voltage-dependent T-type calcium channel subunit alpha-1H (Homo sapiens, UniProt O95180); experiment: Inhibitors of T-Type Calcium Channels. [Related pubchem assays (depositor defined):AID449739, AID463087, AID489005, AID493041, AID504579, AID504584, AID504619, AID504628]; assay type: functional
[5] = target: T2, Voltage-dependent T-type calcium channel subunit alpha-1H; assay type: functional
[6] = target: UDP-galactopyranose mutase (Mycobacterium tuberculosis, UniProt P9WIQ1); experiment: Inhibitors of Mycobacterium tuberculosis UDP-galactopyranose mutase (UGM) enzyme Measured in Biochemical System Using Plate Reader - 2105-02_Inhibitor_Dose_CherryPick_Activity. [Related pubchem assays (depositor defined):AID504439]
[7] = Luminescence Cell-Based Dose Response HTS to Identify Activators of 5'UTR Stem-Loop Driven Prion Protein mRNA Translation in H4-C Neuroglioblastoma Cells. [Related pubchem assays: 1829 (Project Summary), 1814 (Primary HTS)]; assay type: functional
[8] = Luminescence Cell-Based Dose Retest to Confirm Activators of 5'UTR Stem-Loop Driven Alpha-Synuclein mRNA Translation in H4 Neuroglioblastoma Cells. [Related pubchem assays (depositor defined):AID1813, AID1829]; assay type: functional
[9] = Luminescence Cell-Based Dose Confirmation HTS to Identify Activators of 5'UTR Stem-Loop Driven Alpha-Synuclein mRNA Translation in H4 Neuroglioblastoma Cells. [Related pubchem assays: 1829 (Project Summary), 1814 (Primary HTS)]; assay type: functional
[10] = Luminescence Cell-Based Dose Response to Identify Activators of 5'UTR Stem-Loop Driven Prion Protein mRNA Translation in H4-C Neuroglioblastoma Cells. [Related pubchem assays: 1829 (Project Summary), 1814 (Primary HTS)]; assay type: functional
[11] = Luminescence Cell-Based Dose Response HTS to Identify Activators of Luciferase Translation or Activity in H4-C Neuroglioblastoma Cells. [Related pubchem assays: 1829 (Project Summary), 1814 (Primary HTS)]; assay type: functional
[12] = Luminescence Cell-Based Dose Response to Identify Activators of Luciferase Translation or Activity in H4-C Neuroglioblastoma Cells. [Related pubchem assays: 1829 (Project Summary), 1814 (Primary HTS)]; assay type: functional
[13] = Luminescence Cell-Based Dose Response HTS to Identify Activators of Luciferase Translation or Activity in H4 […] Cells. [Related pubchem assays: 1829 (Project Summary), 1814 (Primary HTS)]; assay type: functional
H4 = experiment: Luminescence Cell-Based Dose Response HTS to Identify Activators of 5'UTR Stem-Loop Driven Prion Protein mRNA Translation in H4 Neuroglioblastoma Cells. [Related pubchem assays: 1829 (Project Summary), 1814 (Primary HTS)]; assay type: functional; conditions: Homo sapiens
[14] = Luminescence Cell-Based Dose Confirmation to Identify Activators of 5'UTR Stem-Loop Driven Alpha-Synuclein mRNA Translation in H4 Neuroglioblastoma Cells. [Related pubchem assays: 1829 (Project Summary), 1814 (Primary HTS)]; assay type: functional
Tumor necrosis factor = Tumor necrosis factor (Homo sapiens, UniProt P01375); experiment: TNFa-triggered NF-kB activation inhibitors, SAR follow-up, cell-based, revised (AID 2337); assay type: functional
Interleukin-8 [15] = target: T3, Interleukin-8 (Homo sapiens, UniProt P10145); experiment: SAR analysis of GM-Tri-DAP induced IL-8 secretion in MCF-7/NOD1 cells - Set 2. [Related pubchem assays (depositor defined):AID1575, AID1578, AID2333]; assay type: functional, cell-based
T3 sequence (P10145 whole entry): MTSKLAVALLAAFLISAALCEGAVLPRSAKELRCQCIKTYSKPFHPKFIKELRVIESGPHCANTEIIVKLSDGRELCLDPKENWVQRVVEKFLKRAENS

[16] = target: Nucleotide-binding oligomerization domain-containing protein 2 (Homo sapiens, UniProt Q9HC29); experiment: PubChem AID 2334; assay type: functional
Interleukin-8 [17] = target: T3, Interleukin-8; experiment: SAR analysis of Tumor necrosis factor alpha (TNF-alpha) induced IL-8 secretion in MCF-7/NOD1 cells - Set 2. [Related pubchem assays (depositor defined):AID1575, AID2250, AID2260]; assay type: functional, cell-based
HEK293 = experiment: cells; conditions: Homo sapiens;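 further: cells exposed to compound for 14 hours overnight before viability readout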
[18] = target: T4, Nucleotide-binding oligomerization domain-containing protein 1 (Homo sapiens, UniProt Q9Y239); experiment: SAR analysis of NF-kappaB dependent luciferase using DAP as an inducer - Set 2. [Related pubchem assays (depositor defined):AID1566, AID1575, AID1578, AID1579, AID1849, AID1852, AID2264]; assay type: functional
T4 sequence (Q9Y239 whole entry): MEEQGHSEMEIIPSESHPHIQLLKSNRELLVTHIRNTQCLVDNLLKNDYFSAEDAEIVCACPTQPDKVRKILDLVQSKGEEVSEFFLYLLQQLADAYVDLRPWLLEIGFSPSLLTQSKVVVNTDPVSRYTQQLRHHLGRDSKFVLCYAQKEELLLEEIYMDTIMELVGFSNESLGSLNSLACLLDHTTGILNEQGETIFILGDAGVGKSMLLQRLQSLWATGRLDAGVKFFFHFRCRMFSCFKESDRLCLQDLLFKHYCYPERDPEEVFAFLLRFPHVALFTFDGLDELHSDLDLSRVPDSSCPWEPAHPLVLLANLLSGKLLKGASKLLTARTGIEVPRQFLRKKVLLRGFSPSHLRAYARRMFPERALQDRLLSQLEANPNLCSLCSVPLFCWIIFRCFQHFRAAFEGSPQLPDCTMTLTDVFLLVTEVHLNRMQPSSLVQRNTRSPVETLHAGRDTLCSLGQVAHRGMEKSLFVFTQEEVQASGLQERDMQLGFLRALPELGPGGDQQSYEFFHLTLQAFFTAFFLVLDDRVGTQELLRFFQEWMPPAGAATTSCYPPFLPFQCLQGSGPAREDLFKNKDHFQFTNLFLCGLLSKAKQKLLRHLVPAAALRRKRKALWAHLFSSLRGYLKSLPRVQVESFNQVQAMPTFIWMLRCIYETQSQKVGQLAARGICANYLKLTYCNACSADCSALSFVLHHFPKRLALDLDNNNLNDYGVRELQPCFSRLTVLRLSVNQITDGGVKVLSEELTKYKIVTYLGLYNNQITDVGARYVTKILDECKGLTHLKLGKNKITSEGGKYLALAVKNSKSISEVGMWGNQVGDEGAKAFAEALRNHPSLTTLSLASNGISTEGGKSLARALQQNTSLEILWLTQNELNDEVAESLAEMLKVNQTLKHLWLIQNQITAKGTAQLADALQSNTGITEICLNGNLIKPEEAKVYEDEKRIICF

[19] = target: T4, Nucleotide-binding oligomerization domain-containing protein 1; experiment: NOD1 signaling inhibitors, SAR follow-up, revised (AID 2333); assay type: functional

T2 sequence (O95180 whole entry): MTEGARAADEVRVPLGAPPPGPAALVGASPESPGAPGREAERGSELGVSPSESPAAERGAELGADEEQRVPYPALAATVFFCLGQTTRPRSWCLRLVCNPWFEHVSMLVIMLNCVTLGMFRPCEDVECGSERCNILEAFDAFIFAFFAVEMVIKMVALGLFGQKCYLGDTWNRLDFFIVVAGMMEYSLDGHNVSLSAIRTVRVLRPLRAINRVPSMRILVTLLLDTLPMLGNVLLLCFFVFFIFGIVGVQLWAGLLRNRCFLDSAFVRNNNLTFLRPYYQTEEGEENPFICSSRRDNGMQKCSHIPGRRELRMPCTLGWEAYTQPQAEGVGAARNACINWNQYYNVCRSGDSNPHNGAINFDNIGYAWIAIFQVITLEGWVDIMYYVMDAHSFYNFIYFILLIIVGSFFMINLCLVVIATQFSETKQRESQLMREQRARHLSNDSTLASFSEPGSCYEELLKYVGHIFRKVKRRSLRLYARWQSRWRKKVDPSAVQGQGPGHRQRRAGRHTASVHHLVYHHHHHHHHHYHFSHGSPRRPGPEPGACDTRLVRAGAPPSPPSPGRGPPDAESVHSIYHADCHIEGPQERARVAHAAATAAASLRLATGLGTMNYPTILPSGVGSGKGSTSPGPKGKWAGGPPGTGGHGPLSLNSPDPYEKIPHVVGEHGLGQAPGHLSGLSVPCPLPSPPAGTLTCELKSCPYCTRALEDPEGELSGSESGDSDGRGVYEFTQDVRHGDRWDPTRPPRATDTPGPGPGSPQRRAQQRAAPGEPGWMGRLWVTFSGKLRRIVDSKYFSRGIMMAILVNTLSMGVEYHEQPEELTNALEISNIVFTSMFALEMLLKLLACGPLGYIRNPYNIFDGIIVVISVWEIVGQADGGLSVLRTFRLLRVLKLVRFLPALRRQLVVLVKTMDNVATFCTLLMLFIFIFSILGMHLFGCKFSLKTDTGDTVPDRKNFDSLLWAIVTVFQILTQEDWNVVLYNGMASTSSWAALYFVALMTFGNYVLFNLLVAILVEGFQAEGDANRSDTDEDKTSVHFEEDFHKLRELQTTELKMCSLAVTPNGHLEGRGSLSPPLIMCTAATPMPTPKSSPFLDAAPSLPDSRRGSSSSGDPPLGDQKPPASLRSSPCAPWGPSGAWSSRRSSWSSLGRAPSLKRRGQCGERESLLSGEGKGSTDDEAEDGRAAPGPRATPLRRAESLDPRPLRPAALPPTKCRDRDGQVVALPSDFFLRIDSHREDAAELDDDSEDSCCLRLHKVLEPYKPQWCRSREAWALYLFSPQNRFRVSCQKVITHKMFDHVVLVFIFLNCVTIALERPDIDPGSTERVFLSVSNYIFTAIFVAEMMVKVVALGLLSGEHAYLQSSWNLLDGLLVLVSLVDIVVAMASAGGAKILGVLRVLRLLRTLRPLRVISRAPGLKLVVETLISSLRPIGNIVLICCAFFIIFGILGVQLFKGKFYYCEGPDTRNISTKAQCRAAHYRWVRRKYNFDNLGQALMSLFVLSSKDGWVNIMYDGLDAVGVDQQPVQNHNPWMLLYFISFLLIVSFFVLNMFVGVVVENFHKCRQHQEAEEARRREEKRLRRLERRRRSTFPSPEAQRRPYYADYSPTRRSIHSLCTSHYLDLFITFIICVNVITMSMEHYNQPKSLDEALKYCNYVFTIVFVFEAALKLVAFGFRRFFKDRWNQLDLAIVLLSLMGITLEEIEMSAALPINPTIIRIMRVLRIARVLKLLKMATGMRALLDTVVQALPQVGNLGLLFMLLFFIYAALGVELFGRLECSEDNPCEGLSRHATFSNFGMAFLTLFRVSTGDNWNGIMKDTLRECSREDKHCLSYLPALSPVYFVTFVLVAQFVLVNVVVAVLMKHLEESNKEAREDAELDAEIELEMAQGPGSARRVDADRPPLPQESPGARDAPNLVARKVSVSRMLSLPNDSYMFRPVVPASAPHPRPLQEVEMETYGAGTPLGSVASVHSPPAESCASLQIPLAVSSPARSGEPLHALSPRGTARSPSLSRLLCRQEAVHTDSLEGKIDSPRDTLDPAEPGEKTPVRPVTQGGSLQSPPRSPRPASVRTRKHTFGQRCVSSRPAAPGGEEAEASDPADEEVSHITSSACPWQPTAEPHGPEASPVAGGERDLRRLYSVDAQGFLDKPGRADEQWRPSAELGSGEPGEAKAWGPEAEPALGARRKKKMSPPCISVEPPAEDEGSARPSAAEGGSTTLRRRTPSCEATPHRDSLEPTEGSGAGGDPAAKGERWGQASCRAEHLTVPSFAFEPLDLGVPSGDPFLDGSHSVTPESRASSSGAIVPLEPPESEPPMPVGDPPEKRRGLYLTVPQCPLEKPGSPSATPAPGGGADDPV
UDP-galactopyranose mutase, sequence (P9WIQ1 whole entry): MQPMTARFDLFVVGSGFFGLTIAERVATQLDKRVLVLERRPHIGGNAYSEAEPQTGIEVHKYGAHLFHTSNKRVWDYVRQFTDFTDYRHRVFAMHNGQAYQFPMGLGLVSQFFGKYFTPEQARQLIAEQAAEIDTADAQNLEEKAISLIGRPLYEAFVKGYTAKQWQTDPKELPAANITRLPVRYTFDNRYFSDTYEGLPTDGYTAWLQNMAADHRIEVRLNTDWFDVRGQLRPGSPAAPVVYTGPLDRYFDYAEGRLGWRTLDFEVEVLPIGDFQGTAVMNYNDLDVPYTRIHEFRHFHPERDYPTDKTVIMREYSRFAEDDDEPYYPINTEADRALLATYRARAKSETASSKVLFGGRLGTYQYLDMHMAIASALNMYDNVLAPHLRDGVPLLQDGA
ORF 73, sequence (O40947 whole entry): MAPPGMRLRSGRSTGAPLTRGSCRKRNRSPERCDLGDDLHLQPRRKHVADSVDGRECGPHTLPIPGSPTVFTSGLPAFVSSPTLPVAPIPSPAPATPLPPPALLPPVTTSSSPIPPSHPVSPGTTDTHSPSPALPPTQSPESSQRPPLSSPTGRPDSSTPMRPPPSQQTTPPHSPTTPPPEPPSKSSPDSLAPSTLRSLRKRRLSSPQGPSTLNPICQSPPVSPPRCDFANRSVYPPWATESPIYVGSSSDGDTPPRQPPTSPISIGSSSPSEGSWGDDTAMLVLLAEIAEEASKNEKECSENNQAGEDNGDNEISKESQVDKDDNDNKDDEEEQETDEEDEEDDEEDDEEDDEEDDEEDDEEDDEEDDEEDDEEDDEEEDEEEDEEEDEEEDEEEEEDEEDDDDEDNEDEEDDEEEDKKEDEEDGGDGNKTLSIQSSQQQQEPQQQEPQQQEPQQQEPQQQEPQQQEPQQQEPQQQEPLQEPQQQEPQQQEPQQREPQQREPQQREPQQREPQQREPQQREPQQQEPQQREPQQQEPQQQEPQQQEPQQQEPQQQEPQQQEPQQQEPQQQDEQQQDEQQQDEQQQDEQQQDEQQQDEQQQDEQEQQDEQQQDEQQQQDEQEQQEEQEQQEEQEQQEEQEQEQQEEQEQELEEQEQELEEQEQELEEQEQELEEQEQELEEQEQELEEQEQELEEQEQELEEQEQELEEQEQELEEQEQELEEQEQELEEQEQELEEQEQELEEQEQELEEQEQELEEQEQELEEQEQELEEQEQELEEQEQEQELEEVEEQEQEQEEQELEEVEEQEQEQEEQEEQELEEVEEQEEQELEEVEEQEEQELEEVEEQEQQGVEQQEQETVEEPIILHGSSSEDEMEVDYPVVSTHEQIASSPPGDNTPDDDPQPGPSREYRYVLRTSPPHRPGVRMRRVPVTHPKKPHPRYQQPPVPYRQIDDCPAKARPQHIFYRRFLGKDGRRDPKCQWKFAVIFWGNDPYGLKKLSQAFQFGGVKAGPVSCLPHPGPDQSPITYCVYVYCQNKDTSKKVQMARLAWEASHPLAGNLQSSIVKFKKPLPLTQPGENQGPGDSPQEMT
Nucleotide-binding oligomerization domain-containing protein 2, sequence (Q9HC29 whole entry, the tested form may be a part): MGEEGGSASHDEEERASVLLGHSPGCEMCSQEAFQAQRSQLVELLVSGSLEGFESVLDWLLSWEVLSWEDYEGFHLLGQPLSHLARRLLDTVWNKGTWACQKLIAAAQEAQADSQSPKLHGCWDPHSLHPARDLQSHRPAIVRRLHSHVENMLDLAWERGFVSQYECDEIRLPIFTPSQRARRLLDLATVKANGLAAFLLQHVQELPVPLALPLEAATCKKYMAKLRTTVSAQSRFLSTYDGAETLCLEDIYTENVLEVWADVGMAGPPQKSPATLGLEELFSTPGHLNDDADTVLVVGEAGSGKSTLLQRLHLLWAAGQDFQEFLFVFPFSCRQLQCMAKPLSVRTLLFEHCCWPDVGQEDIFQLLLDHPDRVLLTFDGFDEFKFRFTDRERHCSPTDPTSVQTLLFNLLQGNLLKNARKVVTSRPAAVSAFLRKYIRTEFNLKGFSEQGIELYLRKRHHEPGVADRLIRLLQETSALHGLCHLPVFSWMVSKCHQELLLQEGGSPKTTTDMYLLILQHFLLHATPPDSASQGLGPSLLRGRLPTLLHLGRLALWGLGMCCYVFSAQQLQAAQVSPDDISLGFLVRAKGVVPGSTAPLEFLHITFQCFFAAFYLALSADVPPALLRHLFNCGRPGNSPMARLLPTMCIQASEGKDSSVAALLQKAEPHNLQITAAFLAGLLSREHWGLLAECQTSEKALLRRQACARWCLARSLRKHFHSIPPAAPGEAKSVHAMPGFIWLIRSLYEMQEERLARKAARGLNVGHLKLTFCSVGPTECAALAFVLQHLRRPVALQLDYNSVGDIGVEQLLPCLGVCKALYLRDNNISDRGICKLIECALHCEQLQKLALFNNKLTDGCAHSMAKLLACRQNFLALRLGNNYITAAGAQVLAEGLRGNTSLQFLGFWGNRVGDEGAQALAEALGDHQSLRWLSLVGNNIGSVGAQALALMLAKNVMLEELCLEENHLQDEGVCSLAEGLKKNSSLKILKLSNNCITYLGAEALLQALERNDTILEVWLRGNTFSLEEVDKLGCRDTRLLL
Tumor necrosis factor, sequence (P01375 whole entry): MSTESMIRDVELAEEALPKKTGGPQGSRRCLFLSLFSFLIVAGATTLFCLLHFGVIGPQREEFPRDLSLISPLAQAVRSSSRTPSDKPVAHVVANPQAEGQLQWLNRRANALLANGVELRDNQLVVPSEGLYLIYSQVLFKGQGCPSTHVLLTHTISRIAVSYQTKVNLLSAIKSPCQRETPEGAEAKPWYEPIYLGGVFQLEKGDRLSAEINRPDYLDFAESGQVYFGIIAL

**Q.** Which CC50 [1] does the source give for `O=C(NCc1cc([N+](=O)[O-])ccc1O)c1cccnc1Sc1ccccc1` here?
**A.** > 100 µM (active)

**Q.** With `Nc1c(C(=O)Nc2ccccc2F)sc2nc(Cc3ccccc3)cc(C(F)(F)F)c12` as the compound, how does the AC50 (HeLa) read?
**A.** 95.9 µM (active)

**Q.** What about the EC50 [2] of the same compound?
**A.** > 99 µM (inactive)

**Q.** What about the EC50 [3] of the same compound?
**A.** 17.4 µM (active)

**Q.** And the AC50 (ORF 73)?
**A.** 16.1 µM (active)

**Q.** And the EC50 [4]?
**A.** 1.9 µM (active)

**Q.** And the EC50 [5]?
**A.** 2.71 µM (active)

**Q.** And the AC50 [6]?
**A.** 98.6 µM (active)

**Q.** Which EC50 [7] does the source give for `C=CCc1ccc(OCCn2nnc3ccccc32)c(OC)c1` here?
**A.** > 195 µM (not active)

**Q.** And the EC50 [8]?
**A.** > 195 µM (inactive)

**Q.** And the EC50 [9]?
**A.** < 100 nM (active)

**Q.** And the EC50 [10]?
**A.** 1.49 µM (active)

**Q.** What about the EC50 [11] of the same compound?
**A.** 772 nM (active)

**Q.** And the EC50 [12]?
**A.** 3.71 µM (active)

**Q.** What about the EC50 [13] of the same compound?
**A.** 4.24 µM (active)

**Q.** And the EC50 (H4)?
**A.** 8.33 µM (active)

**Q.** What about the EC50 [14] of the same compound?
**A.** > 12 µM (not active)

**Q.** With `Nc1nc2ccccc2n1CCOc1ccc(Cl)cc1` as the compound, how does the IC50 (Tumor necrosis factor) read?
**A.** > 20 µM (inactive)

**Q.** And the IC50 (Interleukin-8 [15])?
**A.** 8.6 µM (active)

**Q.** And the IC50 [16]?
**A.** > 20 µM (inactive)

**Q.** What about the IC50 (Interleukin-8 [17]) of the same compound?
**A.** > 25 µM (inactive)

**Q.** What about the IC50 (HEK293) of the same compound?
**A.** > 20 µM (inactive)

**Q.** And the IC50 [18]?
**A.** > 25 µM (inactive)

**Q.** And the IC50 [19]?
**A.** 12.7 µM (active)
